According to PubChem BioAssay (NCI):
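Cultured in 96-well plates, cells were exposed to test compound for 48 hours across five concentrations. The concentration for 50% growth inhibition is given as GI50. TGI marks complete inhibition of growth.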

Experiments:
Test in all cases: growth of human tumour cells (NCI), 48 h
[1] = tested on: NCI-H226 lung
[2] = tested on: HL-60(TB) leukemia
[3] = tested on: T-47D breast
[4] = tested on: MDA-MB-231 breast
[5] = tested on: SF-268 CNS
[6] = tested on: CCRF-CEM leukemia
[7] = tested on: UACC-62 melanoma
[8] = tested on: OVCAR-3 ovarian
[9] = tested on: EKVX NSCLC
[10] = tested on: MCF7 breast
[11] = tested on: BT-549 breast
[12] = tested on: SK-MEL-2 melanoma
[13] = tested on: LOX IMVI melanoma
[14] = tested on: U251 CNS
[15] = tested on: SNB-75 CNS
[16] = tested on: UACC-257 melanoma
[17] = tested on: SF-539 CNS
[18] = tested on: 786-0 renal
[19] = tested on: HCT-116 colon
[20] = tested on: SK-MEL-28 melanoma
[21] = tested on: HOP-92 NSCLC
[22] = tested on: MOLT-4 leukemia
[23] = tested on: KM12 colon
[24] = tested on: HOP-62 NSCLC
[25] = tested on: A498 renal
[26] = tested on: SW-620 colon
[27] = tested on: HCT-15 colon
[28] = tested on: K-562 leukemia
[29] = tested on: RXF 393 renal
[30] = tested on: NCI-H23 lung
[31] = tested on: SK-OV-3 ovarian
[32] = tested on: SK-MEL-5 melanoma
[33] = tested on: NCI/ADR-RES ovarian
[34] = tested on: IGROV1 ovarian
[35] = tested on: ACHN renal
[36] = tested on: UO-31 renal
[37] = tested on: SF-295 CNS
[38] = tested on: CAKI-1 renal
[39] = tested on: HS 578T breast
[40] = tested on: DU-145 prostate
[41] = tested on: SN12C renal
[42] = tested on: PC-3 prostate
[43] = tested on: RPMI-8226 leukemia
[44] = tested on: MDA-MB-435
[45] = tested on: OVCAR-5 ovarian
[46] = tested on: HCC-2998 colon
[47] = tested on: COLO 205 colon

COc1ccc(C2=NN(C(C)=O)C(c3cn(-c4ccccc4)nc3-c3ccc(Cl)cc3)C2)cc1 (configuration not stated)
GI50 [1]: > 100 µM
TGI [1]: > 100 µM
GI50 [2]: > 100 µM
TGI [2]: > 100 µM
GI50 [3]: > 100 µM
TGI [3]: > 100 µM
GI50 [4]: > 100 µM
TGI [4]: > 100 µM
GI50 [5]: 6.2 µM
TGI [5]: > 100 µM
GI50 [6]: > 100 µM
TGI [6]: > 100 µM
GI50 [7]: > 100 µM
TGI [7]: > 100 µM
GI50 [8]: > 100 µM
TGI [8]: > 100 µM
GI50 [9]: > 100 µM
TGI [9]: > 100 µM
GI50 [10]: > 100 µM
TGI [10]: > 100 µM
GI50 [11]: > 100 µM
TGI [11]: > 100 µM
GI50 [12]: > 100 µM
TGI [12]: > 100 µM
GI50 [13]: > 100 µM
TGI [13]: > 100 µM
GI50 [14]: 7.44 µM
TGI [14]: > 100 µM
GI50 [15]: 9.08 µM
TGI [15]: > 100 µM
GI50 [16]: > 100 µM
TGI [16]: > 100 µM
GI50 [17]: 25.4 µM
TGI [17]: > 100 µM
GI50 [18]: 30.7 µM
TGI [18]: > 100 µM
GI50 [19]: > 100 µM
TGI [19]: > 100 µM
GI50 [20]: > 100 µM
TGI [20]: > 100 µM
GI50 [21]: 2.4 µM
TGI [21]: > 100 µM
GI50 [22]: > 100 µM
TGI [22]: > 100 µM
GI50 [23]: > 100 µM
TGI [23]: > 100 µM
GI50 [24]: > 100 µM
TGI [24]: > 100 µM
GI50 [25]: 99.5 µM
TGI [25]: > 100 µM
TGI [26]: > 100 µM
TGI [27]: > 100 µM
GI50 [28]: > 100 µM
TGI [28]: > 100 µM
GI50 [29]: 10.5 µM
TGI [29]: > 100 µM
GI50 [30]: > 100 µM
TGI [30]: > 100 µM
GI50 [31]: 4.64 µM
TGI [31]: > 100 µM
GI50 [32]: > 100 µM
TGI [32]: > 100 µM
GI50 [33]: > 100 µM
TGI [33]: > 100 µM
GI50 [34]: > 100 µM
TGI [34]: > 100 µM
GI50 [35]: > 100 µM
TGI [35]: > 100 µM
GI50 [36]: > 100 µM
TGI [36]: > 100 µM
GI50 [37]: 13.2 µM
TGI [37]: > 100 µM
GI50 [38]: > 100 µM
TGI [38]: > 100 µM
GI50 [39]: 4.88 µM
TGI [39]: > 100 µM
GI50 [40]: > 100 µM
TGI [40]: > 100 µM
GI50 [41]: > 100 µM
TGI [41]: > 100 µM
GI50 [42]: > 100 µM
TGI [42]: > 100 µM
GI50 [43]: > 100 µM
TGI [43]: > 100 µM
GI50 [44]: > 100 µM
TGI [44]: > 100 µM
GI50 [45]: > 100 µM
TGI [45]: > 100 µM
GI50 [46]: > 100 µM
TGI [46]: > 100 µM
GI50 [47]: > 100 µM
TGI [47]: > 100 µM
